Consider 15 compounds from the SangsterLogP compilation.

The data set can be described thus: from Draber, W.; Büchel, H.; Dickore, K.; Trebst, A.; Pistorius, E. (1969). Structure-activity correlation of 1,2,4-triazinones, a new group of photosynthesis inhibitors. In: Progress in Photosynthesis …. Conditions: pH 7.0.
In the case of `CCSc1nnc(C(C)C)c(=O)n1N`, the pH-dependent lipophilicity (logD) amounted to 1.52.

With `CNc1nnc(C(C)C)c(=O)n1N`, the pH-dependent lipophilicity (logD) came out at 0.3.

Regarding `CC(C)c1nnc(N2CCOCC2)n(N)c1=O`, the logD is 0.49.

Turning to `CSc1nnc(C2CCCCO2)c(=O)n1N` (stereo not given), the log distribution coefficient (logD) came to 0.38.

Turning to `CC(C)Sc1nnc(C(C)C)c(=O)n1N`, the logD came to 2.06.

In turn, `CSc1nnc(C(C)(C)C)c(=O)n1N` yielded a pH-dependent lipophilicity (logD) of 1.7.

`CCCSc1nnc(C(C)C)c(=O)n1N` gave a logD of 2.12.

As for `CSc1nnc(-c2ccccc2)c(=O)n1N`, the log distribution coefficient (logD) stood at 1.66.

Regarding `CC(C)c1nnc(SCC(=O)c2ccccc2)n(N)c1=O`, the log distribution coefficient (logD) turned out to be 2.07.

`COc1nnc(C(C)C)c(=O)n1N` came in with a logD of -0.06.

`CCCCNc1nnc(C(C)C)c(=O)n1N` returned a logD of 1.78.

As to `CSc1nnc(CCC(C)C)c(=O)n1N`, the log distribution coefficient (logD) is 1.85.

The compound `CCc1nnc(SC)n(N)c1=O` displayed a log distribution coefficient (logD) of 0.46.

As for `CCCCCCc1nnc(SC)n(N)c1=O`, the logD stood at 2.68.

Consider `CSc1nncc(=O)n1N`, for which the pH-dependent lipophilicity (logD) was found to be 0.38.
